Measured values reported in publication PMC6467533 (Chembiochem : a European journal of chemical biology, 2018).

Target: Mtb TPP (Mycobacterium tuberculosis, UniProt P9WFZ5)
Type: biochemical

Mtb TPP, sequence (P9WFZ5 whole entry, looked up): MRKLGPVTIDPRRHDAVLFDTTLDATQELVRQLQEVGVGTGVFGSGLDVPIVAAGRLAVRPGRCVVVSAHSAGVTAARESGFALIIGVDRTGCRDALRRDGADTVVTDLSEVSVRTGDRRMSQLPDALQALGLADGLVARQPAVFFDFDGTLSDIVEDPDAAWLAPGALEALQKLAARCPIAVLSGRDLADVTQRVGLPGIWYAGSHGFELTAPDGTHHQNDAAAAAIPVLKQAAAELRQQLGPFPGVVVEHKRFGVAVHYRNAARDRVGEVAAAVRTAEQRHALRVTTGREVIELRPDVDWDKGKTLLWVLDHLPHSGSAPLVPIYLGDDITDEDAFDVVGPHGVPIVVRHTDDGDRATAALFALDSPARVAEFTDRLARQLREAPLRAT

## O=P(O)(O)C[C@H]1O[C@H](O[C@H]2O[C@H](CO)[C@@H](O)[C@H](O)[C@H]2O)[C@H](O)[C@@H](O)[C@@H]1O [TMP, 6-Deoxy-6-(phosphonic acid)-α,α’-trehalose]
  IC50 fold worse than the determined T6P KM, Mtb TPP: 2.8 fold
